{
  "source": "patent US11718645B2",
  "about": "“Macrocyclic therapeutic agents, methods of manufacture, and methods of treatment” (University of Florida Research Foundation, Incorporated, priority 2014, dated 2023)",
  "key": {"[1]": {"system": "HCT116 cells", "experiment": "Cell viability assay (MTT)", "format": "cell-based, human", "conditions": "determined after 48 h (n = 4)", "procedure": "(§1) Human colon adenocarcinoma HCT116 cells were purchased from ATCC (Manassas, Va.) and cultured in Dulbecco's modified Eagle's medium (Invitrogen, Carlsbad, Calif.) supplemented with 10% fetal bovine serum (HyClone, Logan, Utah) at 37° C. humidified air and 5% CO2.\nHCT116 cells were seeded at a density of 1×10^4 cells per well in 96-well plates. 24 h later the cells were treated with various concentrations of apratoxins or solvent control. After 48 h of incubation, cell viability was detected using MTT according to the manufacturer's instructions (Promega, Madison, Wis.)."}, "[2]": {"experiment": "Cellular stability in HCT116 cell lysate", "format": "in vitro ADME, human", "conditions": "HCT116 protein lysate 0.7 mg/mL, up to 24 h, FIG. 2D", "procedure": "Aliquots of HCT116 cell lysates were diluted with 25 mM Tris-HCl buffer, pH 8.0, to give a final reaction volume of 100 μL and protein concentration of 0.7 mg/mL. Cell lysate solutions were incubated with 10 μL of apratoxin A, BK, BL, BM, or BN (25 μg/mL) for 0.25 min to 24 h (nine time points). Remaining apratoxin A, BK, BL, BM, or BN were extracted from the reaction solution at the end of the incubation periods with ethyl acetate using the same procedure as described for the plasma stability assay.\n(§2) Analysis of apratoxin A, S4 (BK), S7 (BL), S8 (BM) and S9 (BN) was done by using HPLC-MS [column, Onyx Monolithic C18 (3.0×100 mm), Phenomenex (Torrance, Calif.); solvent, water (solvent A) acetonitrile (solvent B); flow rate, 0.5 ml/min; detection by electrospray ionization-MS in positive ion mode (MRM scan)]. A stepwise gradient elution was used starting at 60% B and 40% A, then increasing to 80% B at 5 min and maintained at this condition for 5 min. Parameters were optimized before analysis by using direct syringe infusion. The retention times (tR, min; MRM ion pair) of the analytes and internal standard are as follows: harmine (2.2; 213.1→169.9), apratoxin A (4.7; 841.4→445.2), apratoxin S4 (BK) (4.1; 828.5→432.2), apratoxin S7 (BL) (4.05; 814.5→418.2), apratoxin S8 (BM) (5.2; 842.5→446.2), apratoxin S9 (BN) (4.9; 828.5→432.2). Compound-dependent parameters used were as follows: apratoxin A, declustering potential (DP) 51, entrance potential (EP) 12, collision energy (CE) 45, collision cell exit potential (CXP) 6, collision cell entrance potential (CEP) 32; and harmine, DP 56.0, EP 4.5, CE 44.0, CXP 5, CEP 16.0. Source gas parameters used were as follows: curtain gas, 15.0; collision gas low, ionspray voltage 5500; temperature, 600.0; ion source gas 150.0; ion source gas 2 60.0.\n(§3) Calibration curves for apratoxin A, S4 (BK), S7 (BL), S8 (BM) and S9 (BN) in the presence of mouse serum, HCT116 cell lysates, and aqueous solutions were generated by least-square linear regression analysis of the analyte peak area and internal standard peak area ratio against the nominal concentration of the standard solutions. A linear regression analysis was performed, and the concentration of remaining apratoxins at each time point was determined through interpolation for plasma, cellular, and aqueous stability experiments. The amount of remaining apratoxins with microsome incubation was determined from the peak area ratio of apratoxins at tx (3 min to 3 h) and t0. All calculations were done by using Analyst 1.4.2 (Applied Biosystems) Quantitate Mode."}, "[3]": {"experiment": "Plasma stability in mouse serum", "format": "in vitro ADME", "conditions": "up to 24 h, FIG. 2C", "procedure": "In vitro plasma stability of apratoxin A, S4 (BK), S7 (BL), S8 (BM) and S9 (BN) was done by using a modification of a published method [Chen, X.; Gardner, E. R.; Figg, W. D. J. Chromatogr. B Analyt. Technol. Biomed. Life Sci. 2008, 86, 153-158]. Ten microliters of apratoxin A, BK, BL, BM, or BN (25 μg/mL) were added to 100 μL of mouse serum, and the solution was vortex-mixed for 15 s and incubated for 0.25 min to 24 h (11 time points). At the end of each incubation period, 400 μL of ethyl acetate was added to each tube, followed by 200 μL of harmine to quench the reaction and to extract the remaining apratoxin A or S4 (BK), S7 (BL), S8 (BM) and S9 (BN). Samples were further incubated in a thermomixer at 27° C. (750 rpm, 5 min) and later centrifuged for 5 min at 1643 g. The ethyl acetate layer was collected and evaporated to dryness under nitrogen. Samples were reconstituted in 50 μL of acetonitrile. A volume of 10 μL of the reconstituted solution was injected into the HPLC-MS system.\nas §2, with “Compound-dependent parameters used were as follows: apratoxin A, declustering potential (DP) 51, entrance potential (EP) 12, collision energy (CE) 45, collision cell exit potential (CXP) 6, collision cell entrance potential (CEP) 32; and harmine, DP 56.0, EP 4.5, CE 44.0, CXP 5, CEP 16.0. Source gas parameters used were as follows: curtain gas, 15.0; collision gas low, ionspray voltage 5500; temperature, 600.0; ion source gas 150.0; ion source gas 2 60.0.” left out\nas §3"}, "[4]": {"system": "HCT116 xenograft", "conditions": "previous efficacious dose 0.25 mg/kg; cited from earlier work"}, "[5]": {"experiment": "Microsomal stability", "format": "in vitro ADME, mouse", "procedure": "HPLC-MS was done on a 3200 QTRAP (Applied Biosystems) equipped with a Shimadzu (Kyoto, Japan) UFLC System. Mouse serum and harmine were purchased from Sigma-Aldrich. Pooled CD1 mouse liver (female) microsomes were purchased from XenoTech, LCC (Lenexa, Kans.) with protein concentrations of 0.5 mg/ml. HCT116 cell lysates were prepared with PhosphoSafe lysis buffer (Novagen). Protein concentration was determined by using the BCA Assay. Analysis was carried out similarly as previously described [Liu, Y.; Salvador, L. A.; Byeon, S.; Ying, Y.; Kwan, J. C.; Law, B. K.; Hong, J.; Luesch. H. J. Pharmacol. Exp. Ther. 2010, 335, 351-361].\nThe stability of apratoxin A, S4 (BK), S7 (BL), S8 (BM) and S9 (BN) in the presence of mouse microsomes was determined by using an adaptation of a published procedure [Ackley, D. C.; Rockich, K. T.; Baker, T. R. Optimization in Drug Discovery: In Vitro Methods (Series: Methods in Pharmacology and Toxicology) (eds Yan Z, Caldwell J W) 2004, pp 151-162, Springer, New Jersey]. In brief, microsomes were added to prewarmed phosphate buffer (100 mM, pH 7.4) at 37° C. Apratoxin A, BK, BL, BM, or BN (3 μL) were added to the microsomal preparation followed by NADPH cofactor solution (1.3 mM NADP, 3.3 mM glucose 6-phosphate, 0.4 U/mL glucose-6-phosphate dehydrogenase, 3.3 mM MgCl2). The reaction was allowed to proceed for 3 min to 3 h (7 time points) at 37° C. (thermomixer, 1050 rpm). The reaction was quenched by addition of ethyl acetate and subsequently spiked with harmine. The zero time point was defined by denaturing the microsomes with ethyl acetate before the addition of apratoxins. Incubation of apratoxins with microsomes alone was also performed following the same procedure to determine NADPH-dependent metabolism. The final concentration of the incubation mixture contained 0.5 mg/ml protein concentration and 1 μM apratoxins.\nas §2, §3"}, "[6]": {"system": "VEGF-A secretion", "experiment": "Measurement of VEGF-A production (alphaLISA) in HCT116 culture supernatants", "format": "cell-based, human", "conditions": "determined after 12 h (n = 3)", "procedure": "as §1\nHCT116 cells (1×10^4 cells per well) were seeded in 96-well plates and one day later treated with various concentrations of apratoxins or solvent control. After 12 h of incubation, culture supernatants were collected for detection of VEGF-A by using an alphaLISA kit (PerkinElmer, Waltham, Mass.) following the manufacturer's instructions. Briefly, acceptor bead and anti-VEGF antibody were incubated first with the supernatants for 60 min, donor beads were added later and incubated for another 30 min and then VEGF-A levels detected using Envision (PerkinElmer)."}},
  "data": [
    {"smiles": "CC[C@H](C)[C@H]1C(=O)N2CCC[C@H]2C(=O)O[C@H](C(C)(C)C)C[C@@H](C)C[C@H](O)[C@H](C)C2=N[C@@H](CCC(=O)N[C@@H](Cc3ccc(OC)cc3)C(=O)N(C)[C@@H](C)C(=O)N1C)CS2", "note": "[apratoxin S4 (BK), Apratoxin S4]", "values": [
      {"measurement": "IC50", "setting": "[1]", "result": 1.43, "unit": "nM"},
      {"measurement": "cellular stability", "setting": "[2]", "result": "excellent"},
      {"measurement": "plasma stability", "setting": "[3]", "result": "excellent"},
      {"measurement": "in vivo activity (previous study)", "setting": "[4]", "result": "extremely potent and active in vivo"},
      {"measurement": "% remaining", "setting": "[5]; microsomes + NADPH, 0 min", "result": 100, "unit": "%"},
      {"measurement": "% remaining", "setting": "[5]; microsomes + NADPH, 3 min", "result": "39.55 ± 1.06", "unit": "%"},
      {"measurement": "% remaining", "setting": "[5]; microsomes + NADPH, 5 min", "result": "32.20 ± 16.12", "unit": "%"},
      {"measurement": "% remaining", "setting": "[5]; microsomes + NADPH, 15 min", "result": "10.07 ± 1.46", "unit": "%"},
      {"measurement": "% remaining", "setting": "[5]; microsomes + NADPH, 30 min", "result": "9.58 ± 1.03", "unit": "%"},
      {"measurement": "% remaining", "setting": "[5]; microsomes + NADPH, 60 min", "result": "10.00 ± 0.71", "unit": "%"},
      {"measurement": "% remaining", "setting": "[5]; microsomes + NADPH, 120 min", "result": "6.02 ± 2.11", "unit": "%"},
      {"measurement": "% remaining", "setting": "[5]; microsomes only, 0 min", "result": 100, "unit": "%"},
      {"measurement": "% remaining", "setting": "[5]; microsomes only, 3 min", "result": "87.05 ± 1.63", "unit": "%"},
      {"measurement": "% remaining", "setting": "[5]; microsomes only, 5 min", "result": "70.80 ± 23.48", "unit": "%"},
      {"measurement": "% remaining", "setting": "[5]; microsomes only, 15 min", "result": "87.20 ± 2.83", "unit": "%"},
      {"measurement": "% remaining", "setting": "[5]; microsomes only, 30 min", "result": "73.85 ± 15.49", "unit": "%"},
      {"measurement": "% remaining", "setting": "[5]; microsomes only, 60 min", "result": "87.10 ± 1.41", "unit": "%"},
      {"measurement": "% remaining", "setting": "[5]; microsomes only, 120 min", "result": "55.25 ± 12.09", "unit": "%"},
      {"measurement": "IC50", "setting": "[6]", "result": 0.32, "unit": "nM"}
    ]}
  ]
}
